Measured values: patent publication US10413583B2, “Synthetic substrates for enzymes that catalyze reactions of modified cysteines and related methods” (The University of Chicago, priority 2016, dated 2019)

What was measured:
[1] = biological target: T1, APT1 (Homo sapiens, UniProt O75608); test: In vitro kinetic assay and emission spectra of DPP-1, DPP-2, DPP-3 with purified APT1 (with detergent); type: biochemical
T1 construct: His-tag; made in house; host or cells: E. coli ROSETTA DE3
Method: (§1) 50 μL of 7.5 μM DPP1-3 in HEPES (20 mM, pH=7.4, 150 mM NaCl, 0.1% Triton X-100) were added to a 384-well black flat bottom plate (Corning Life Sciences, Corning, N.Y., United States of America) and placed in an Infinite M200 Pro (Tecan, Mannedorf, Switzerland) plate reader at 37° C. for 5 min to warm. 25 μL of either 4-(2-hydroxyethyl)-1-piperazineethanesulfonic acid (HEPES) buffer alone or HEPES buffer containing 150 nM APT1 or APT2, was added using a multi-channel pipette, resulting in a final concentration of 5 μM DPP1-3 and 50 nM APT1 or APT2. Fluorescence intensities (λex 490/9 nm, λem 545/20 nm, Gain 70, No. of flashes 25, Integration time 100 μs and Z-position 20000 μm) were measured at 30 second (s) time intervals for 20 min. At the end of 20 min kinetic run, emission spectra were obtained (λex 485 nm, Aem510-700 nm, Gain 100, No. of flashes 25, Integration time 100 μs and Z-position 20,000 μm).

[2] = biological target: T2, APT2 (Homo sapiens, UniProt O95372); test: In vitro kinetic assay and emission spectra of DPP-1, DPP-2, DPP-3 with purified APT2 (with detergent); type: biochemical
T2 construct: His-tag; made in house; host or cells: E. coli ROSETTA DE3
Method: as §1

[3] = Water solubility of probes (stated in words); type: physicochemical
[4] = system: HEK293T cells; test: Live cell fluorescence imaging and flow cytometry of DPP-2 and DPP-3 in HEK293T cells; type: cell-based, human; settings: 1 μM DPP-2 for 15 min, microscopy or flow cytometry
Method: HEK293T (650,000 cells per dish) cells were plated with 1.5 mL of Dulbecco's Modified Eagle Medium (DMEM) (High Glucose, 10% fetal bovine serum (FBS)) in a 35 mm glass bottom dish (D35-10-1.5-N; Cellvis, Mountain View, Calif., United States of America) 24 hrs prior to imaging. 30 min before the addition of the DPP probe, the cell culture media was removed and cells were washed with 1 mL of Delbecco's phosphate-buffered saline (DPBS). The media was then replaced with 1 mL of DMEM containing 1 μM Hoechst 33342 and either 0.1% DMSO carrier as a control, 1 or 2 μM Palm B, 0.1, 1.0, or 5 μM ML348, and incubated for 30 min at 37° C. and 5% CO2. The media was removed, the cells were washed with 1 mL of Live Cell Imaging Solution (Thermo Fisher Scientific, Waltham, Mass., United States of America), and 1 mL of 1 μM DPP-2 or DPP-3 in Live Cell Imaging Solution was added to each plate. For ML348 0.1, 1.0, or 5 μM was added along with DPP-2 or DPP-3. After incubation for 15 min at 37° C. and 5% CO2, images were obtained on an inverted epi-fluorescence microscope (Olympus IX83; Olympus Corporation, Tokyo, Japan) attached with EMCCD camera (Photometrics EVOLVE™ Delta; Photometrics, Tucson, Ariz., United States of America) with 40× oil objective (N/A 1.3) for DPP-2 (excitation filter 500/20, dichroic chroma 89007, emission filter 535/30, exposure time 200 ms, EM gain 25), Hoechst 33342: (excitation filter 402/15, emission filter 455/50, dichroic chroma 89013, exposure time 30 ms, EM gain 25), and brightfield (exposure time 5 ms, EM gain 5), and for DPP-3 (exposure time 500 ms, EM gain 150), Hoechst 33342: (exposure time 30 ms, EM gain 25), and brightfield (exposure time 20 ms, EM gain 5). Analyses were performed in ImageJ. For data analysis, the average fluorescence intensity per image in each experimental condition was obtained by selecting regions of interest (ROIs) in the brightfield image. For display, the data were normalized to the average fluorescence intensity of the control conditions. Each experiment was repeated at least three separate times with identical results.
Cells were plated on a 10 cm dish with 10 mL of DMEM/High Glucose (10% FBS, 1% P/S, L-Glutamine, Sodium pyruvate) 36-48 hours prior to the day of experiment and maintained at 37° C., 5% CO2 so as to obtain 80-90% confluency. Cells were washed with DPBS and trypsinized with 1 mL 0.05% Trypsin. 5 mL of DMEM/High Glucose (10% FBS, L-Glutamine, Sodium pyruvate) was added and cells were spun down at 1200 rpm for 3 min. Media was discarded and cells were resuspended in 5 mL of Live Cell Imaging Solution and again spun down at 1200 rpm for 3 min. The cells pellets obtained were resuspended in 3-5 mL of Live Cell Imaging Solution and divided into 500 μL aliquots. The aliquots were treated with either 0.2% DMSO carrier or 1 μM of PalmB/ML348 or 1 μM/5 μM of ML349 inhibitor. After 30 min of incubation at room temperature, 1 μL of 2.5 mM DPP-3 in DMSO was added to each aliquot for a final concentration of 5 μM, and the solutions were mixed. After 5 min incubation at room temperature, fluorescence signal in FITC channel was measured for 10000 cells (5000 for HeLa experiments) on a LSR-Fortessa 4-15 HTS (BD digital instrument, 488 nm laser with 530/30 nm filter for FITC; BD, Franklin Lakes, N.J., United States of America). For analyzing DPP2 in HEK293T cells, the aliquots were treated with either 0.2% DMSO carrier or 2 μM of PalmB, 5 or 20 μM of ML348/ML349 and then analyzed by the protocol as mentioned above. Data was analyzed by FlowJo software version 10.0.8. For comparison of A431 starved versus non-starved, parallel 10 cm dishes of A431 cells were plated in 10 mL of DMEM (high glucose, 10% FBS, 1% P/S), and grown for 36 h. The growth media was removed, and replaced by 10 mL of either DMEM (High glucose) with 10% FBS to maintain “growth” conditions, or DMEM (High glucose) without FBS respectively for “starvation” conditions, and incubated for 14 h. […]

T1 sequence (O75608 whole entry): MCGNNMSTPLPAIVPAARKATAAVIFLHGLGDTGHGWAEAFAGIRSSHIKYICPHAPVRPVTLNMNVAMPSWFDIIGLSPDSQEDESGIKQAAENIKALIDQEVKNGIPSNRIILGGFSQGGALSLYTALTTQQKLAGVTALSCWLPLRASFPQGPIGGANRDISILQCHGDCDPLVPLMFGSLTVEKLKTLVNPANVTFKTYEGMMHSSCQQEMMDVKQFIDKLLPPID
T2 sequence (O95372 whole entry): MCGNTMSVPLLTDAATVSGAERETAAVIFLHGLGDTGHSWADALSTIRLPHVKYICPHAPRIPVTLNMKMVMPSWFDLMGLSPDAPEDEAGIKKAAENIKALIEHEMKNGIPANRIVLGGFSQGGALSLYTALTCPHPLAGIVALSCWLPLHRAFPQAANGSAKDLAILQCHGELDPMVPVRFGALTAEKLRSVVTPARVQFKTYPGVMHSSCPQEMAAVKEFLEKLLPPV

Q: For `CCCCCCCC(=O)SC[C@@H](C(=O)NC)N(C)C(=O)Oc1ccc2c(c1)Oc1cc(N(C)C)ccc1C21OC(=O)c2ccccc21` (some centres unmarked) [DPP-2], which “enhancement in fluorescence signal” value ([1]; 5 μM probe, 50 nM APT1, 20 min) is on record?
A: 200 fold

Q: What about the “performance as substrate / reaction kinetics” value ([1]; purified APT1) of the same compound?
A: slightly better than DPP-1

Q: What about the “performance as substrate” value [2] of the same compound?
A: slightly better than DPP-1

Q: What about the “water solubility” value [3] of the same compound?
A: water soluble

Q: And the “probe fluorescent signal in live cells” value [4]?
A: robust intracellular fluorescent signal
